Source: patent publication US6960601B2, “Preparation and use of imidazole derivatives for treatment of obesity” (Bayer Pharmaceuticals Corporation, priority 2001, dated 2005)

How the values were obtained:
[1] = Measurement of brain exposure; format: in vivo; conditions: rat, brain homogenate, oral; 10 mg/kg p.o.; brains collected at 2 hours post-dosing; male obese Zucker fa/fa rats; read-out: brain homogenate exposure level
Protocol: Measurement of Brain Exposure
Male obese Zucker fa/fa rats were administered compounds, typically at 10 mg/kg p.o., and then brains were collected at 2 hours post-dosing for determination of brain concentration. Brains were weighed and homogenized with 4 mL 10 mM ammonium acetate buffer (pH 3), and the brain tissue homogenate samples were extracted via protein precipitation with acetonitrile. Samples were vortexed, centrifuged, and analyzed by liquid chromatography utilizing mass spectrometer selective detection (LC/MS/MS) using the heated nebulizer interface. Samples were quantitated using weighted (1/x^2) linear internal standard calibration curve. For example, when 1-(4-chlorophenyl)-2-(2-chlorophenyl)-N-(1-piperidinyl)-5-butyl-1H-imidazole-4-carboxamide was dosed at 10 mg/kg p.o., a brain homogenate exposure level of approximately 200 nM was determined; when 2-(2-chlorophenyl)-1-(4-chlorophenyl)-5-ethyl-N-[(1S,2S)-2-hydroxycyclohexyl]-1H-imidazole-4-carboxamide was dosed at 10 mg/kg p.o., a brain homogenate exposure level of approximately 200 nM was determined.

[2] = tested on: obese Zucker fa/fa rats; experiment: Chronic feeding assay (body weight, food and water consumption); format: in vivo, rat; conditions: 10 mg/kg p.o. once a day, day 6 of treatment
Source text: Evaluation of Compound's Efficacy on the Reduction of Body Weight and Food and Water Consumption in Obese Zucker fa/fa Rats
The purpose of this protocol is to determine the effect of chronic administration of an unknown compound on body weight and food and water consumption in obese Zucker fa/fa rats. Obese Zucker fa/fa rats are frequently used in the determination of compound efficacy in the reduction of body weight. This animal model has been successfully used in the identification and characterization of the efficacy profile of compounds that are or have been used in the management of body weight in obese humans (see, e.g., Al-Barazanji et al., Obes Res. 8:317-323, 2000; Assimacopoulos-Jeannet et al., Am. J. Physiol. 260(2 Pt 2):R278-283, 1991; Dryden et al., Horm. Metab. Res. 31:363-366, 1999; Edwards and Stevens, Pharmacol. Biochem. Behav. 47:865-872, 1994; Grinker et al., Pharmacol. Biochem. Behav. 12:265-275, 1980).
A typical study includes 60-80 male Zucker fa/fa (n=10/treatment group) with an average body weight of approximately 550 g. Rats are kept in standard animal rooms under controlled temperature and humidity and a 12/12 light dark cycle. Water and food are continuously available. Rats are single-housed in large rat shoeboxes containing grid floor. Animals are adapted to the grid floors and sham-dosed with study vehicle for at least four days before the recording of two-days baseline measurement of body weight and 24-hr food and water consumption. Rats are assigned to one of 6-8 treatment groups based upon their body weight on baseline. The groups are set up so that the mean and standard error of the mean of body weight were similar.
Animals are orally gavaged (2 mL/kg) daily before the dark phase of the LD/cycle for a pre-determined number of days (typically 6-14 days) with their assigned dose/compound. At this time, body weight, food and water consumption are measured. On the final day, animals are euthanized by CO2 inhalation, and the body weight is measured.

concentration at 2 h [1] [nM] | melting point [°C] | SMILES | increase in body weight from baseline [2] | reduction in body weight gain as compared to the vehicle control group [2]
~200 | – | CCCCc1c(C(=O)NN2CCCCC2)nc(-c2ccccc2Cl)n1-c1ccc(Cl)cc1 [1-(4-chlorophenyl)-2-(2-chlorophenyl)-N-(1-piperidinyl)-5-butyl-1H-imidazole-4-carboxamide] | – | –
– | 217 to 220 | Cc1c(C(=O)NC2CCCCC2)nc(-c2ccccc2Cl)n1-c1ccc([N+](=O)[O-])cc1 [Example 23, N-cyclohexyl-2-(2-chlorophenyl)-5-methyl-1-(4-nitrophenyl)-1H-imidazole-4-carboxamide] | – | –
~200 | – | CCc1c(C(=O)N[C@H]2CCCC[C@@H]2O)nc(-c2ccccc2Cl)n1-c1ccc(Cl)cc1 [2-(2-chlorophenyl)-1-(4-chlorophenyl)-5-ethyl-N-[(1S,2S)-2-hydroxycyclohexyl]-1H-imidazole-4-carboxamide] | – | –
– | – | O=C(N[C@H]1CCCC[C@@H]1O)c1cn(-c2ccc(Cl)cc2)c(-c2ccccc2Cl)n1 [2-(2-chlorophenyl)-1-(4-chlorophenyl)-N-[(1S,2S)-2-hydroxycyclohexyl]-1H-imidazole-4-carboxamide] | approximately 2.4% | approximately 50%
– | – | Cl.O=C(NNc1ccc(C(F)(F)F)cc1)c1cn(-c2ccc(Cl)cc2)c(-c2ccccc2Cl)n1 [2-(2-chlorophenyl)-1-(4-chlorophenyl)-N′-[4-(trifluoromethyl)phenyl]-1H-imidazole-4-carbohydrazide hydrochloride] | approximately 1.8% | approximately 60%
